Assay results from patent publication US10450292B2, “Inhibitors of bacterial RNA polymerase: arylpropanoyl, arylpropenoyl, and arylcyclopropanecarboxyl phloroglucinols” (Rutgers, The State University of New Jersey, priority 2015, dated 2019).
Converted amounts (≈) assume the structure as drawn.

Tests used:
[1] = system: Enterococcus faecalis ATCC 19433; assay: Inhibition of bacterial growth in culture, spiral gradient endpoint assay (MIC); type: cell-based; settings: for MIC E. faecalis H37Rv: Mueller-Hinton II agar, 16 h at 37° C.; for MIC: Enterococcus faecalis, ATCC 19433 /, 16 h, read-out: MIC E. faecalis, Mueller-Hinton II agar, 16 h at 37° C.
From the text: J. Microbiol. Meths. […] Int. J. Exp. Clin. Chemother. […] Adv.

[2] = system: Escherichia coli D21f2tolC; settings: Mueller-Hinton II agar, 16 h at 37° C.
[3] = system: Staphylococcus aureus ATCC 12600; assay: Inhibition of bacterial growth in culture, spiral gradient endpoint assay (MIC); settings: for MIC: Staphylococcus aureus, ATCC12600, 16 h, read-out: MIC S. aureus 12600, Mueller-Hinton II agar, 16 h at 37° C.
[4] = system: Escherichia coli D21f2tolC; assay: microbe, parasite or virus in culture; settings: 16 h, read-out: MIC E. coli D21f2tolC, Mueller-Hinton II agar, 16 h at 37° C.

SMILES	MIC E. faecalis H37Rv [1] [µg/mL]	MIC E. coli D21f2tolC [2] [µg/mL]	MIC S. aureus 12600 ([3]; Mueller-Hinton II agar, 16 h at 37° C.) [µg/mL]	MIC [1] [µg/mL]	MIC [4] [µg/mL]	MIC [3] [µg/mL]
CCC1=C(O)C(CC)(CC)C(=O)C(C(=O)C2CC2c2ccc(Cl)cc2)=C1O (stereo not drawn) [Example 89, 2-(2-(4-chlorophenyl)cyclopropanecarbonyl)-4,6,6-triethyl-3,5-dihydroxycyclohexa-2,4-dienone]	>40	3.0 (≈ 7.71 µM)	7.9 (≈ 20.3 µM)	–	–	–
CC1=C(O)C(C)(C)C(=O)C(C(=O)C2CC2c2ccc(Oc3ccc(F)cc3)cc2)=C1O (stereo not drawn) [Example 92, 2-(2-(4-(4-fluorophenoxy)phenyl)cyclopropanecarbonyl)-3,5-dihydroxy-4,6,6-trimethylcyclohexa-2,4-dienone]	–	–	–	> 40	5.5 (≈ 13 µM)	21 (≈ 49.7 µM)
O=C(c1c(O)cc(O)cc1O)C1CC1c1ccc(C(F)(F)F)cc1 (stereo not drawn) [Example 58, (2-(4-(trifluoromethyl)phenyl)cyclopropyl)(2,4,6-trihydroxyphenyl)methanone]	–	–	–	12 (≈ 35.5 µM)	3.9 (≈ 11.5 µM)	10 (≈ 29.6 µM)
CC1=C(O)C(C)(C)C(=O)C(C(=O)C2CC2c2ccc(C(F)(F)F)cc2)=C1O (stereo not drawn) [Example 88, 3,5-dihydroxy-4,6,6-trimethyl-2-(2-(4-(trifluoromethyl)phenyl)cyclopropanecarbonyl)cyclohexa-2,4-dienone]	–	–	–	> 40	> 40	> 40
CCC1=C(O)C(CC)(CC)C(=O)C(C(=O)C2CC2c2ccc(C(F)(F)F)cc2)=C1O (stereo not drawn) [Example 90, 4,6,6-triethyl-3,5-dihydroxy-2-(2-(4-(trifluoromethyl)phenyl)cyclopropanecarbonyl)cyclohexa-2,4-dienone]	–	–	–	2.3 (≈ 5.44 µM)	1.1 (≈ 2.6 µM)	1.4 (≈ 3.31 µM)
CC(Cc1ccc(Cl)cc1)C(=O)c1c(O)cc(O)cc1O (racemic) [Example 30, 3-(4-chlorophenyl)-2-methyl-1-(2,4,6-trihydroxyphenyl)propan-1-one]	–	–	–	17 (≈ 55.4 µM)	6.5 (≈ 21.2 µM)	14 (≈ 45.6 µM)
CCC1=C(O)C(CC)(CC)C(=O)C(C(=O)C2CC2c2ccc(Oc3ccc(F)cc3)cc2C(F)(F)F)=C1O (stereo not drawn) [Example 72, 4,6,6-triethyl-2-(2-(4-(4-fluorophenoxy)-2-(trifluoromethyl)phenyl)cyclopropanecarbonyl)-3,5-dihydroxycyclohexa-2,4-dienone]	–	–	–	> 40	1.6 (≈ 3 µM)	6.5 (≈ 12.2 µM)
O=C(CCc1ccc(Oc2ccc(F)cc2)cc1C(F)(F)F)c1c(O)cc(O)c(Cl)c1O [Example 49, 1-(3-chloro-2,4,6-trihydroxyphenyl)-3-(4-(4-fluorophenoxy)-2-(trifluoromethyl)phenyl)propan-1-one]	–	–	–	12 (≈ 25.5 µM)	12 (≈ 25.5 µM)	12 (≈ 25.5 µM)
CCC1=C(O)C(CC)(CC)C(=O)C(C(=O)CCc2ccc(Oc3ccc(F)cc3)cc2)=C1O [Example 61, 4,6,6-triethyl-2-(3-(4-(4-fluorophenoxy)phenyl)propanoyl)-3,5-dihydroxycyclohexa-2,4-dienone]	–	–	–	0.44 (≈ 0.972 µM)	0.24 (≈ 0.53 µM)	0.56 (≈ 1.24 µM)
CCCC1=C(O)C(CCC)(CCC)C(=O)C(C(=O)CCc2ccc(Oc3ccc(F)cc3)cc2C)=C1O [Example 69, 2-(3-(4-(4-fluorophenoxy)-2-methylphenyl)propanoyl)-3,5-dihydroxy-4,6,6-tripropylcyclohexa-2,4-dienone]	–	–	–	1.4 (≈ 2.75 µM)	1.1 (≈ 2.16 µM)	1.1 (≈ 2.16 µM)
CCCC1=C(O)C(CCC)(CCC)C(=O)C(C(=O)C2CC2c2ccc(Oc3ccc(F)cc3)cc2C(F)(F)F)=C1O (stereo not drawn) [Example 70, 2-(2-(4-(4-fluorophenoxy)-2-(trifluoromethyl)phenyl)cyclopropanecarbonyl)-3,5-dihydroxy-4,6,6-tripropylcyclohexa-2,4-dienone]	–	–	–	1.2 (≈ 2.09 µM)	8.2 (≈ 14.3 µM)	1.5 (≈ 2.61 µM)
CC1=C(O)C(C)(C)C(=O)C(C(=O)CCc2ccc(Oc3ccc(F)cc3)cc2)=C1O [Example 78, 2-(3-(4-(4-fluorophenoxy)phenyl)propanoyl)-3,5-dihydroxy-4,6,6-trimethylcyclohexa-2,4-dienone]	–	–	–	> 40	6.5 (≈ 15.8 µM)	> 40
O=C(c1c(O)cc(O)cc1O)C1CC1c1ccc(Oc2ccccc2)cc1 (stereo not drawn) [Example 22, (2-(4-phenoxyphenyl)cyclopropyl)(2,4,6-trihydroxyphenyl) methanone]	–	–	–	1.3 (≈ 3.59 µM)	0.49 (≈ 1.35 µM)	1 (≈ 2.76 µM)
CCCC1=C(O)C(CCC)(CCC)C(=O)C(C(=O)C2CC2c2ccc(Oc3ccccc3)cc2)=C1O (stereo not drawn) [Example 59, 3,5-dihydroxy-2-(2-(4-phenoxyphenyl)cyclopropanecarbonyl)-4,6,6-tripropylcyclohexa-2,4-dienone]	–	–	–	3 (≈ 6.14 µM)	1.1 (≈ 2.25 µM)	0.7 (≈ 1.43 µM)
O=C(/C=C/c1ccc(OCc2ccccc2)cc1)c1c(O)cc(O)cc1O [Example 7]	–	–	–	> 40	16 (≈ 44.2 µM)	> 40
CCCC1=C(O)C(CCC)(CCC)C(=O)C(C(=O)C2CC2c2ccc(Cl)cc2C(F)(F)F)=C1O (stereo not drawn) [Example 80, 2-(2-(4-chloro-2-(trifluoromethyl)phenyl)cyclopropanecarbonyl)-3,5-dihydroxy-4,6,6-tripropylcyclohexa-2,4-dienone]	–	–	–	0.42 (≈ 0.842 µM)	0.33 (≈ 0.661 µM)	0.14 (≈ 0.281 µM)
CCCC1=C(O)C(CCC)(CCC)C(=O)C(C(=O)C2CC2c2ccc(C(F)(F)F)cc2C(F)(F)F)=C1O (stereo not drawn) [Example 86, 2-(2-(2,4-bis(trifluoromethyl)phenyl)cyclopropanecarbonyl)-3,5-dihydroxy-4,6,6-tripropylcyclohexa-2,4-dienone]	–	–	–	1.7 (≈ 3.19 µM)	2.2 (≈ 4.13 µM)	0.65 (≈ 1.22 µM)
CCCC1=C(O)C(CCC)(CCC)C(=O)C(C(=O)C2CC2c2ccc(Oc3ccc(F)cc3)cc2)=C1O (stereo not drawn) [Example 66, 2-(2-(4-(4-fluorophenoxy)phenyl)cyclopropanecarbonyl)-3,5-dihydroxy-4,6,6-tripropylcyclohexa-2,4-dienone]	–	–	–	0.55 (≈ 1.09 µM)	0.72 (≈ 1.42 µM)	0.16 (≈ 0.316 µM)
CCC1=C(O)C(CC)(CC)C(=O)C(C(=O)C2CC2c2ccc(Cl)cc2)=C1O (stereo not drawn) [Example 81, 2-(2-(4-chlorophenyl)cyclopropanecarbonyl)-4,6,6-triethyl-3,5-dihydroxycyclohexa-2,4-dienone]	11 (≈ 28.3 µM)	–	–	–	2.2 (≈ 5.66 µM)	4.5 (≈ 11.6 µM)
Cc1cc(Oc2ccc(Cl)cc2)ccc1C1CC1C(=O)c1c(O)cc(O)cc1O (stereo not drawn) [Example 26, (2-(4-(4-chlorophenoxy)-2-methylphenyl)cyclopropyl)(2,4,6-trihydroxyphenyl)methanone]	–	–	–	2.1 (≈ 5.11 µM)	1.4 (≈ 3.41 µM)	1.4 (≈ 3.41 µM)
Cc1cc(Cl)ccc1C1CC1C(=O)c1c(O)cc(O)c(Cl)c1O (stereo not drawn) [Example 56, (3-chloro-2,4,6-trihydroxyphenyl)(2-(4-chloro-2-methylphenyl)cyclopropyl)methanone]	–	–	–	22 (≈ 62.3 µM)	> 40	17 (≈ 48.1 µM)
Cc1cc(Oc2ccc(F)cc2)ccc1/C=C/C(=O)c1c(O)cc(O)cc1O [Example 27, (E)-3-(4-(4-fluorophenoxy)-2-methylphenyl)-1-(2,4,6-trihydroxyphenyl)prop-2-en-1-one]	–	–	–	17 (≈ 44.7 µM)	2.4 (≈ 6.31 µM)	5.1 (≈ 13.4 µM)
O=C(/C=C/c1ccc(C(F)(F)F)cc1C(F)(F)F)c1c(O)cc(O)cc1O [Example 9, (E)-3-(2,4-bis(trifluoromethyl)phenyl)-1-(2,4,6-trihydroxyphenyl)prop-2-en-1-one]	–	–	–	16 (≈ 40.8 µM)	8 (≈ 20.4 µM)	13 (≈ 33.1 µM)
Cc1cc(Oc2ccc(F)cc2)ccc1CCC(=O)c1c(O)cc(O)cc1O [Example 34, 3-(4-(4-fluorophenoxy)-2-methylphenyl)-1-(2,4,6-trihydroxyphenyl)propan-1-one]	–	–	–	5.2 (≈ 13.6 µM)	1.1 (≈ 2.88 µM)	3.6 (≈ 9.41 µM)
O=C(CCc1ccc(Oc2ccc(C(F)(F)F)cc2)cc1)c1c(O)cc(O)cc1O [Example 35, 3-(4-(4-(trifluoromethyl)phenoxy)phenyl)-1-(2,4,6-trihydroxyphenyl)propan-1-one]	–	–	–	5.1 (≈ 12.2 µM)	1.3 (≈ 3.11 µM)	3.5 (≈ 8.37 µM)
O=C(/C=C/c1ccc(C(F)(F)F)cc1)c1c(O)cc(O)cc1O [Example 14, (E)-3-(4-(trifluoromethyl)phenyl)-1-(2,4,6-trihydroxyphenyl)prop-2-en-1-one]	–	–	–	32 (≈ 98.7 µM)	20 (≈ 61.7 µM)	32 (≈ 98.7 µM)
CC1=C(O)C(C)(C)C(=O)C(C(=O)C2CC2c2ccc(Cl)cc2C)=C1O (stereo not drawn) [Example 77, 2-(2-(4-chloro-2-methylphenyl)cyclopropanecarbonyl)-3,5-dihydroxy-4,6,6-trimethylcyclohexa-2,4-dienone]	–	–	–	> 40	7.4 (≈ 20.5 µM)	> 40
Cc1cc(Oc2ccccc2)ccc1C1CC1C(=O)c1c(O)cc(O)cc1O (stereo not drawn) [Example 39, (2-(2-methyl-4-phenoxyphenyl)cyclopropyl)(2,4,6-trihydroxyphenyl)methanone]	–	–	–	4.1 (≈ 10.9 µM)	1.6 (≈ 4.25 µM)	3.6 (≈ 9.56 µM)
O=C(C=Cc1ccc(Oc2ccc(Cl)cc2)cc1)c1c(O)cc(O)cc1O (mixture of isomers) [Example 5, (E)-3-(4-(4-chlorophenoxy)phenyl)-1-(2,4,6-trihydroxyphenyl)prop-2-en-1-one]	–	–	–	6	1.6	2.6
